Measurements reported in patent US20230181482A1, “LIPIDS FOR DELIVERY OF NUCLEIC ACID SEGMENTS” (AstraZeneca AB, priority 2021, published 2023).

Tests used:
[1] = LNP particle size by dynamic light scattering (Zetasizer Nano ZS); assay type: physicochemical
Procedure: (§1) A solution of eGFP mRNA (purchased from TriLink Biotechnologies) in citrate buffer was prepared by mixing mRNA dissolved in MilliQ-water, 100 mM citrate buffer (pH 3) and MilliQ-water to give a solution of 50 mM citrate. Lipid solution in ethanol (99.5%) was prepared with four different lipid components: ionizable lipid (see Table 1); cholesterol (Sigma-Aldrich); DSPC (distearoyl phosphatidyl choline, Avanti Polar Lipids Inc); and a polymer-conjugated lipid (see Table 1). The ratio of lipids in all experiments was ionizable lipid/cholesterol/DSPC/polymer-conjugated lipid (50/38.5/10/1.5 mol %). The total concentration of lipids in all experiments was 12.5 mM.
(§2) The mRNA and lipid solutions were mixed in a NanoAssemblr (Precision Nanosystems, Vancouver, BC, Canada) microfluidic mixing system at a mixing ratio of Aq:EtOH=3:1 and a constant flow rate of 12 mL/min. The mRNA in citrate buffer solution was prepared such that, at the time of mixing the ratio between the nitrogen atoms on the ionizable lipid and phosphorus atoms (N/P ratio) on the mRNA chain was either 3:1 or 6:1 (see Table 1).
The first 0.2-0.35 mL and the last 0.05-0.1 mL of the LNP suspension prepared were discarded while the rest of the volume was collected as the sample fraction. The size of the mRNA lipid nanoparticles was determined by dynamic light scattering measurements using a Zetasizer Nano ZS from Malvern Instruments Ltd, giving directly the z-average particle diameter. The number-weighted particle size distributions and averages were calculated using a particle refractive index of 1.45.

[2] = mRNA encapsulation efficiency of LNP formulations (Quant-it Ribogreen assay with Triton-X100); assay type: physicochemical
Procedure: as §1, §2
The final mRNA concentration and encapsulation efficiency percentage (% EE) was measured by Quant-it Ribogreen Assay Kit (ThermoFischer Scientific Inc.) using Triton-X100 to disrupt the LNPs. The mRNA encapsulation efficiency was determined according to the following equation: […]

Female BALB/c mice = experiment: eGFP expression in the liver at 24 hours after intravenous administration of LNP formulations to mouse (ELISA); assay type: in vivo; details: LNP N/P 3:1, DMPE-PEG2000
From the text: Female BALB/c mice were purchased (SPF (Beijing) Laboratory Animal Technology Co. Ltd.) and on arrival were caged in groups of 4 on corncob bedding, with normal diet and were provided tap drinking water ad libitum that was purified and autoclaved before being offered to the animal. The environment was maintained at a target temperature of […] and relative humidity of 40-80%, with a 12-hour light/dark cycle. Animals were acclimatised to the housing conditions for at least 7 days prior to any experimental procedures and were approximately 6-8 weeks of age at the start of dosing
Animals were assigned to respective groups such that the mean body weights for each treatment groups will be equal. N=4 for each treatment group.
Formulations 1, 3, 4, 5, and 6 from Example 58 were each dosed intravenously: Each mouse was removed from its cage and restrained, and then dosed with a slow IV bolus of a formulation in the lateral tail vein at a dose […] of 0.3 mg/kg.
All animals were sacrificed 24 hours after dosing and flowing blood sampling the liver for the animals dosed by the IV route and the liver and muscle at the dose site for the IM dosed animals were harvested for eGFP analysis by ELISA.
Additional LNP formulations were prepared according to the procedures described in Example 46. These formulations were tested using the same protocol as described herein. The results of eGFP expression in the liver at 24 hours after intravenous administration of the formulations were summarized in Tables 3, 4, 5 and 6 below.

[3] = Table 1, number-average particle diameter, N/P ratio 3:1, DMPE-PEG2000
[4] = Table 1, z-average particle diameter, N/P ratio 3:1, DMPE-PEG2000
[5] = Table 1, LNP with eGFP mRNA, N/P ratio 3:1, DMPE-PEG2000
[6] = Table 3, N/P ratio 3:1, DMPE-PEG2000
[7] = Table 4, N/P ratio 3:1, DMPE-PEG2000
[8] = Table 5, N/P ratio 3:1, DMPE-PEG2000
[9] = Table 1, number-average particle diameter, N/P ratio 6:1, DMG-PEG2000
[10] = Table 1, z-average particle diameter, N/P ratio 6:1, DMG-PEG2000
[11] = Table 1, LNP with eGFP mRNA, N/P ratio 6:1, DMG-PEG2000

SMILES	<d>N (nm) [1, 6]	<d>Z (nm) [1, 6]	% EE [2, 6]	Liver eGFP protein (ng/g tissue) (Female BALB/c mice; Table 3, 0.3 mg/kg)	<d>N (nm) [1, 7]	<d>Z (nm) [1, 7]	% EE [2, 7]	Liver eGFP protein (ng/g tissue) (Female BALB/c mice; Table 4, 0.3 mg/kg)	other results
CCCCCC(CCCCC)CCOC(=O)CCCCCCCC(CCCCCCCC(=O)OCCC(CCCCC)CCCCC)NC1CCOCC1 [Compound 2, bis(3-pentyloctyl) 9-[(oxan-4-yl)amino]heptadecanedioate]	–	–	–	–	–	–	–	–	<d>N (nm) [1, 3]: 58 nm; <d>Z (nm) [1, 4]: 73 nm; % EE [2, 5]: 96%
CCCCCC(CCCCC)CCOC(=O)CCCCCCCC(CCCCCCCC(=O)OCCC(CCCCC)CCCCC)NCC1CCOC1 (centres unmarked) [Compound 3, bis(3-pentyloctyl) 9-(((tetrahydrofuran-3-yl)methyl)amino)heptadecanedioate]	–	–	–	–	–	–	–	–	<d>N (nm) [1, 3]: 58 nm; <d>Z (nm) [1, 4]: 79 nm; % EE [2, 5]: 99%
CCCCCC(CCCCC)CCOC(=O)CCCCCCCC(CCCCCCCC(=O)OCCC(CCCCC)CCCCC)NCC1CCOCC1 [Compound 4, bis(3-pentyloctyl) 9-(((tetrahydro-2H-pyran-4-yl)methyl)amino)heptadecanedioate]	–	–	–	–	–	–	–	–	<d>N (nm) [1, 3]: 62 nm; <d>Z (nm) [1, 4]: 81 nm; % EE [2, 5]: 96%
CCCCCC(CCCCC)CCOC(=O)CCCCCCCC(CCCCCCCC(=O)OCCC(CCCCC)CCCCC)NCC1COC1 [Compound 5, bis(3-pentyloctyl) 9-((oxetan-3-ylmethyl)amino)heptadecanedioate]	–	–	–	–	–	–	–	–	<d>N (nm) [1, 3]: 54 nm; <d>Z (nm) [1, 4]: 70 nm; % EE [2, 5]: 99%
CCCCCC(CCCCC)CCOC(=O)CCCCCCCC(CCCCCCCC(=O)OCCC(CCCCC)CCCCC)NCC1CCCCO1 (centres unmarked) [Compound 6, bis(3-pentyloctyl) 9-(((tetrahydro-2H-pyran-2-yl)methyl)amino)heptadecanedioate]	59 nm	77 nm	87%	3621.3 ng/g tissue	–	–	–	–	–
CCCCCC(CCCCC)CCOC(=O)CCCCCCCC(CCCCCCCC(=O)OCCC(CCCCC)CCCCC)NCCC1CCOCC1 [Compound 7, bis(3-pentyloctyl) 9-((2-(tetrahydro-2H-pyran-4-yl)ethyl)amino)heptadecanedioate]	54 nm	77 nm	94%	6526.4 ng/g tissue	–	–	–	–	–
CCCCCC(CCCCC)CCOC(=O)CCCCCCCC(CCCCCCCC(=O)OCCC(CCCCC)CCCCC)NCC1CCCO1 (centres unmarked) [Compound 8, bis(3-pentyloctyl) 9-(((tetrahydrofuran-2-yl)methyl)amino)heptadecanedioate]	61 nm	76 nm	95%	6124.2 ng/g tissue	–	–	–	–	–
CCCCCC(CCCCC)CCOC(=O)CCCCCCCC(CCCCCCCC(=O)OCCC(CCCCC)CCCCC)NCC1COCCO1 (centres unmarked) [Compound 9, bis(3-pentyloctyl) 9-(((1,4-dioxan-2-yl)methyl)amino)heptadecanedioate]	61 nm	81 nm	93%	3160.9 ng/g tissue	–	–	–	–	–
CCCCCC(CCCCC)CCOC(=O)CCCCCC(CCCCCC(=O)OCCC(CCCCC)CCCCC)NC1CC2(COC2)C1 [Compound 13, bis(3-pentyloctyl) 7-((2-oxaspiro[3.3]heptan-6-yl)amino)tridecanedioate]	49 nm	66 nm	93%	8798.8 ng/g tissue	–	–	–	–	–
CCCCCC(CCCCC)CCOC(=O)CCCCCCCCC(CCCCCCCCC(=O)OCCC(CCCCC)CCCCC)NC1CC2(COC2)C1 [Compound 14, bis(3-pentyloctyl) 10-((2-oxaspiro[3.3]heptan-6-yl)amino)nonadecanedioate]	61 nm	77 nm	95%	8056.3 ng/g tissue	–	–	–	–	–
CCCCCC(CCCCC)CCOC(=O)CCCCCCCCC(CCCCCCCCC(=O)OCCC(CCCCC)CCCCC)NC1CCOCC1 [Compound 15, bis(3-pentyloctyl) 10-((tetrahydro-2H-pyran-4-yl)amino)nonadecanedioate]	–	–	–	–	72 nm	89 nm	97%	829.4 ng/g tissue	–
CCCCCC(CCCCC)CCOC(=O)CCCCCCCCC(CCCCCCCCC(=O)OCCC(CCCCC)CCCCC)NCC1CCCCO1 (centres unmarked) [Compound 16, bis(3-pentyloctyl) 10-(((tetrahydro-2H-pyran-2-yl)methyl)amino)nonadecanedioate]	–	–	–	–	61 nm	78 nm	91%	1393.4 ng/g tissue	–
CCCCCC(CCCCC)CCOC(=O)CCCCCCCCC(CCCCCCCCC(=O)OCCC(CCCCC)CCCCC)NCC1CCOCC1 [Compound 17, bis(3-pentyloctyl) 10-(((tetrahydro-2H-pyran-4-yl)methyl)amino)nonadecanedioate]	–	–	–	–	77 nm	96 nm	93%	6831.3 ng/g tissue	–
CCCCCC(CCCCC)CCOC(=O)CCCCCCCCC(CCCCCCCCC(=O)OCCC(CCCCC)CCCCC)NCC1COC1 [Compound 18, bis(3-pentyloctyl) 10-((oxetan-3-ylmethyl)amino)nonadecanedioate]	–	–	–	–	67 nm	86 nm	97%	6817.5 ng/g tissue	–
CCCCCCCCCOC(=O)CCCCCC(CCCCCC(=O)OC(CCCCCCCC)CCCCCCCC)NC1CC2(COC2)C1 (centres unmarked) [Compound 19, 1-(heptadecan-9-yl) 13-nonyl 7-((2-oxaspiro[3.3]heptan-6-yl)amino)tridecanedioate]	–	–	–	–	57 nm	75 nm	92%	9938.1 ng/g tissue	–
CCCCCCCCCOC(=O)CCCCCC(CCCCCC(=O)OC(CCCCCCCC)CCCCCCCC)NCC1COC1 (centres unmarked) [Compound 20, 1-(heptadecan-9-yl) 13-nonyl 7-((oxetan-3-ylmethyl)amino)tridecanedioate]	–	–	–	–	53 nm	67 nm	97%	9757.7 ng/g tissue	–
CCCCCCCCC(CCCCCCCC)OC(=O)CCCCCCCC(CCCCCCCC(=O)OCC(C)CCCCCCC)NCC1CCOC1 (centres unmarked) [Compound 21, 1-(heptadecan-9-yl) 17-(2-methylnonyl) 9-(((tetrahydrofuran-3-yl)methyl)amino)heptadecanedioate]	–	–	–	–	–	–	–	–	<d>N (nm) [1, 8]: 57 nm; <d>Z (nm) [1, 8]: 72 nm; % EE [2, 8]: 97%; Liver eGFP protein (ng/g tissue) (Female BALB/c mice; Table 5, 0.3 mg/kg): 4103.6 ng/g tissue
CCCCCCCCC(CCCCCCCC)OC(=O)CCCCCCCC(CCCCCCCC(=O)OCC(C)CCCCCCC)NC1CC2(COC2)C1 (centres unmarked) [Compound 22, 1-(heptadecan-9-yl) 17-(2-methylnonyl) 9-((2-oxaspiro[3.3]heptan-6-yl)amino)heptadecanedioate]	–	–	–	–	–	–	–	–	<d>N (nm) [1, 8]: 63 nm; <d>Z (nm) [1, 8]: 90 nm; % EE [2, 8]: 95%; Liver eGFP protein (ng/g tissue) (Female BALB/c mice; Table 5, 0.3 mg/kg): 4570.6 ng/g tissue
CCCCCCCCCOC(=O)CCCCCCCN(CCO)CCCCCCCC(=O)OC(CCCCCCCC)CCCCCCCC [MOD5, heptadecan-9-yl 8-((2-hydroxyethyl)(8-(nonyloxy)-8-oxooctyl)amino)octanoate, reference compound]	–	–	–	–	–	–	–	–	<d>N (nm) [1, 9]: 47 nm; <d>Z (nm) [1, 10]: 66 nm; % EE [2, 11]: 98%
CCCCCCCCCCCOC(=O)CCCCCN(CCO)CCCCCCCC(=O)OC(CCCCCCCC)CCCCCCCC [MOD8, heptadecan-9-yl 8-((2-hydroxyethyl)(6-oxo-6-(undecyloxy)hexyl)amino)octanoate, reference compound]	–	–	–	–	–	–	–	–	<d>N (nm) [1, 9]: 49 nm; <d>Z (nm) [1, 10]: 73 nm; % EE [2, 11]: 98%
